In US5776929A, “Benzodiazepine derivative” (Shionogi & Co., Ltd., priority 1993, dated 1998) one finds IC50 data, which are given here for eight compounds.

pIC50: −log10 of the molar value. Read-outs that look alike come from different tables or passages of the source. Some results are limits rather than exact numbers.

A word on the pIC50: it is −log10 of the IC50, conventionally taken in molar units.

The target in one assay is T1, gastrin receptor (Cavia porcellus, UniProt H0VZC5).
T1 construct: stomach was extracted from each animal immediately, from which gastric glands were prepared; from tissue; host or cells: gastric (fundic) glands of male Hartley guinea pigs
T1 sequence (H0VZC5 1-426): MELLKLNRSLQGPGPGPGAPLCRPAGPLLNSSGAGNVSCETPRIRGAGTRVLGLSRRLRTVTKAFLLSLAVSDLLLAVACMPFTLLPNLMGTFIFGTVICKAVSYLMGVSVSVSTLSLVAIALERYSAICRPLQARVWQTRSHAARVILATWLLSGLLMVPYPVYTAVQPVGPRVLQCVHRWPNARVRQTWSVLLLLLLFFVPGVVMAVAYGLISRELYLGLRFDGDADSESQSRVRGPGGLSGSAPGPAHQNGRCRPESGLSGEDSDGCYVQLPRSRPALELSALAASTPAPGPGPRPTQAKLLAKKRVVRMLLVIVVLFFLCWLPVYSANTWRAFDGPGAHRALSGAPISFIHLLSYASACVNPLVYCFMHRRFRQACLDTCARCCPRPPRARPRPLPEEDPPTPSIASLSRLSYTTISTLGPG
In words: Gastrin receptor antagonism, displacement of 125I-labeled gastrin, gastric (fundic) gland cells. The assay is classed as binding, guinea pig (male Hartley). The protocol:
(§1) Male Hartley guinea pig (450-600 g) or male ddY mouse (24-30 g) were used.
(1) Gastrin Receptor Antagonism
Preparation of gastric glands:
Male Hartley guinea pigs (450-600 g) were killed by bleeding and stomach was extracted from each animal immediately, from which gastric glands were prepared.
Preparation of test compounds and procedures of displacing assay
A 1M solution of a compound to be tested in DMSO is prepared and diluted with 50% DMSO to obtain a ten-fold dilution series.
The mixture is incubated for 30 min at 25° C., centrifuged at 2000 rpm for 5 min and the supernatant is removed by aspiration. To the pellet is added ice-cooled incubation buffer and mixed gently, followed by an immediate centrifugation and removal of the supernatant by aspiration. The radioactivity is counted on gamma counter. The same procedure was repeated using 50% DMSO solution or human gastrin I (final concentration, 2 μM) instead of a solution of test compound so as to obtain the control value regarding total binding or the value regarding non-specific binding, respectively. […]
(§2) specific binding of control=total binding (cpm)-non-specific binding (cpm); and specific binding of test compound=[…]-non-specific binding (cpm).
On the technique in general: Loss of bound radioactivity is the signal in a displacement assay; it reports binding, not function.

The target in another assay is T2, CCK-A receptor (Mus musculus, UniProt O08786).
T2 construct: crude membrane specimen from mouse pancreas; from tissue; host or cells: pancreas of male ddY mice, crude membranes
T2 sequence (O08786 1-436): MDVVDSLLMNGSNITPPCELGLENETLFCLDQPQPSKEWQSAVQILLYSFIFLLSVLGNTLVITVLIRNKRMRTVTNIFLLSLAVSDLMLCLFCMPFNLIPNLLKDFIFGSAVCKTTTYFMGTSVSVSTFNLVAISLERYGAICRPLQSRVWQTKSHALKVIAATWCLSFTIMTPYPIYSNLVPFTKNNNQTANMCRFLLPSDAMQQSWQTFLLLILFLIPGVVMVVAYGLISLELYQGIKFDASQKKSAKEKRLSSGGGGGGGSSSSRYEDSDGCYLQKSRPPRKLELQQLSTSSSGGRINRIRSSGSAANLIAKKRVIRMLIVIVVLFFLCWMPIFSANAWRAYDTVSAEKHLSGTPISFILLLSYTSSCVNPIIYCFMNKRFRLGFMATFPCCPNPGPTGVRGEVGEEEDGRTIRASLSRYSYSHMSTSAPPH
In words: CCK-A receptor antagonism, displacement of [3H]CCK-8, pancreas crude membrane. Format: binding, mouse (male ddY). As for the experimental part: as §1
(§3) (2) CCK-A Receptor Antagonism and CCK-B Receptor Antagonism
(§4) Preparation of CCK receptor preparations
(§5) Male ddY mice (24 to 30 g) were killed by decapitation and cerebral cortex (CCK-B) and pancreas (CCK-A) were extracted immediately. Each of cerebral cortex and pancreas was mixed with 50 mM Tris-HCl buffer (pH 7.4) and homogenized with a teflon-glass homogenizer and polytron homogenizer to obtain crude membrane specimens.
(§6) Preparation of test compounds and procedures of displacing assay A 1M solution of a compound to be tested in DMSO is prepared and diluted with 50% DMSO to obtain a ten-fold dilution series.
(§7) The reaction is initiated by the addition of crude membrane specimen to solutions of different concentration each containing [^3 H]CCk-8 (final concentration, 1 nM). The mixture is incubated for 90 min at 25° C., filtered through glass filter with aspiration and washed with a cooled 50 mM Tris buffer. After the addition of Aquazol-2 cocktail the radioactivity is counted. The same procedure was repeated using 50% DMSO solution or Ceruletide (final concentration, 1 μM) instead of a solution of test compound so as to obtain the control value regarding total binding or the value regarding non-specific binding, respectively. […]
as §2

A further assay concerns the target T3, CCK-B receptor (Mus musculus, UniProt P56481).
T3 construct: crude membrane specimen from mouse cerebral cortex; from tissue; host or cells: cerebral cortex of male ddY mice, crude membranes
T3 sequence (P56481 1-453): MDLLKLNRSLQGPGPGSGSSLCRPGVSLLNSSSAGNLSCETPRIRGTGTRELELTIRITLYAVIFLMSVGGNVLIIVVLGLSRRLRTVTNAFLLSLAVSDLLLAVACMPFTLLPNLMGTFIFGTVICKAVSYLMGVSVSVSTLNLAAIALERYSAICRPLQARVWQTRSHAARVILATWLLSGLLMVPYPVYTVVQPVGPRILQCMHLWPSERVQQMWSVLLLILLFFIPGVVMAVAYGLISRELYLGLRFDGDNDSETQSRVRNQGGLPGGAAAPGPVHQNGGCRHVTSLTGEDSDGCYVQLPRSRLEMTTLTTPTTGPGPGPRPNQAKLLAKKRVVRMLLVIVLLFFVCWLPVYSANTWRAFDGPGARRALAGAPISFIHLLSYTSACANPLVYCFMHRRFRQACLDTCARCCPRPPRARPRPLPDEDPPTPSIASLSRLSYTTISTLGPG
In words: CCK-B receptor antagonism, displacement of [3H]CCK-8, cerebral cortex crude membrane. The assay is classed as binding, mouse (male ddY). As for the experimental part: as §1, §3, §4, §5, §6, §7, §2

The mark [1] stands for this setting: guinea pig gastric glands, 125I-gastrin 0.2 nM, 30 min, 25 °C, read-out: Receptor Gastrin (IC50).
The mark [2] stands for this setting: mouse pancreas membrane, [3H]CCK-8 1 nM, 90 min, 25 °C, read-out: Receptor CCK-A (IC50).
Setting [3] is: mouse cerebral cortex membrane, [3H]CCK-8 1 nM, 90 min, 25 °C, read-out: Receptor CCK-B (IC50).

Take `CC(C)(C)OC(=O)CN1C(=O)C(NC(=O)Nc2cccc(COC(=O)NCCCC(=O)OCc3ccccc3)c2)C(=O)N(CC(=O)OC(C)(C)C)c2ccccc21` [Compound 10s, 1,5-Bis-(tert-butoxycarbonylmethyl)-3-(N'-(3-(3-(benzyloxycarbonyl)propylcarbamoyloxymethyl)phenyl)-ureido)-1H-1,5-benzodiazepine-2,4(3H,5H)-dione]: the results for the pIC50 on gastrin receptor (setting [1]), on CCK-A receptor (setting [2]) and at CCK-B receptor (setting [3]) were 8.15, over 7.00 and 8.40, respectively.
For `COC(=O)CCCNC(=O)OCc1cccc(NC(=O)NC2C(=O)N(CC3CC3)c3ccccc3N(CC3CC3)C2=O)c1` [Compound 9o, 1,5-Bis-(cyclopropylmethyl)-3-(N'-(3-(3-(carbomethoxy)propylcarbamoyloxymethyl)phenyl)ureido)-1H-1,5-benzodiazepine-2,4(3H,5H)-dione], in that order: 7.51, 5.41 and 7.11.
For `COC(=O)CCCNC(=O)OCc1cccc(NC(=O)NC2C(=O)N(CC(=O)C3CC3)c3ccccc3N(CC(=O)C3CC3)C2=O)c1` [Compound 9h, 1,5-Bis-(cyclopropylcarbonylmethyl)-3-(N'-(3-(3-(carbomethoxy)propylcarbamoyloxymethyl)phenyl)ureido)-1H-1,5-benzodiazepine-2,4(3H,5H)-dione], in that order: 8.40, 5.90 and 7.70.
For `COC(=O)CCCNC(=O)OCc1cccc(NC(=O)NC2C(=O)N(CC(=O)N3CCSC3)c3ccccc3N(CC(=O)N3CCSC3)C2=O)c1` [Compound 9b, 1,5-Bis-(thiazolidinecarbonylmethyl)-3-(N'-(3-(3-(carbomethoxy)propylcarbamoyloxymethyl)phenyl)ureido)-1H-1,5-benzodiazepine-2,4(3H,5H)-dione], the pIC50 was 7.85 on gastrin receptor, 6.44 on CCK-A receptor and 6.92 at CCK-B receptor.
Turning to `COC(=O)CCCNC(=O)OCc1cccc(NC(=O)NC2C(=O)N(CC(=O)N3CCCC3)c3ccccc3N(CC(=O)N3CCCC3)C2=O)c1` [Compound 9a, 1,5-Bis-(pyrrolidinecarbonylmethyl)-3-(N'-(3-(3-(carbomethoxy)propylcarbamoyloxymethyl)phenyl)ureido)-1H-1,5-benzodiazepine-2,4(3H,5H) -dione], the negative-log IC50 (pIC50) on gastrin receptor (setting [1]) was 8.10; at CCK-A receptor (setting [2]), 5.68; at CCK-B receptor (setting [3]) it was 6.89.
Turning to `Cc1cccc(NC(=O)NC2C(=O)N(CC(=O)OC(C)(C)C)c3ccccc3N(CC(=O)OC(C)(C)C)C2=O)c1` [Compound 8s, 1,5-Bis-(t-butoxycarbonylmethyl)-3-(N'-(m-tolyl)ureido)-1H-1,5-benzodiazepine-2,4(3H,5H)-dione], the negative logarithm of the IC50 (pIC50) is 8.70 at gastrin receptor (setting [1]), 7.00 at CCK-A receptor (setting [2]) and 8.70 on CCK-B receptor (setting [3]).
With `COC(=O)CCCNC(=O)OCc1cccc(NC(=O)NC2C(=O)N(CC(=O)c3ccco3)c3ccccc3N(CC(=O)c3ccco3)C2=O)c1` [Compound 9f, 1,5-Bis-(2-furylcarbonylmethyl)-3-(N'-(3-(3-(carbomethoxy)propylcarbamoyloxymethyl)phenyl)ureido) -1H-1,5-benzodiazepine-2,4(3H,5H)-dione], the pIC50 at gastrin receptor (setting [1]) was 8.15; on CCK-A receptor (setting [2]) it was 5.85; on CCK-B receptor (setting [3]), 7.21.
For `O=C(O)CCCNC(=O)OCc1cccc(NC(=O)NC2C(=O)N(CC(=O)c3ccco3)c3ccccc3N(CC(=O)c3ccco3)C2=O)c1` [Compound 11f, 1,5-Bis-(2-furylcarbonylmethyl)-3-(N'-(3-(3-(carboxy)propylcarbamoyloxymethyl)phenyl)ureido)-1H-1,5-benzodiazepine-2,4(3H,5H)-dione], in that order: 8.22, 6.10 and 7.42.
